The values below come from patent US20030166721A1, “Choline derivative for the treatment of alzheimer's disease” (priority 2000, published 2003).

In data set [1] the test system is Wistar rats. Description: Behavioural and EEG effects in rats at different doses. It counts as in vivo, rat. The procedure: Young male Wistar rats (200-260) were used in the experiments, housed in a standard temperature and humidity conditions, with food and water ad libitum.
The animals, anaesthetised with chloral hydrate (400 mg/kg) […], were stereotaxically implanted (Kopft Instruments) with cortical electrodes (n=4) onto the fronto-parietal region of the neocortex on both cerebral hemispheres, to record EEG. After surgery all animals were housed 48 h to allow a complete recovery.
48 Hours after electrode implantation, the animals, placed in a transparent box and freely moving, were connected with an electroencephalograph and the electrocortical activity was continuously monitored and recorded. After a 30 min control time, the compounds under test were intraperitoneally administered and EEG recording was continued for 90-120 min
EEG was recorded by computerised 24-channels apparatus (Vega 24, Galileo type, ESA-OTE Biomedica, Florence, Italy), while the spectrum activity was quantitatively analysed by a Berg Fourier analyser (ESA-OTE Biomedica, Florence, Italy). The total EEG power (0.25-16 Hz range) was divided into 5 variable frequency bands: δ 0.25-3 Hz, θ 3-6; α1 6-9; α2 9-12 and β12-16 Hz.
The EEG patterns and behavioral effects observed in the rat after administration of the choline derivatives and of the vehicle is reported in 5 Tab. 3. Such effects can be ascribed to the changes of EEG spectrum total power. An […] in EEG total power is related with the presence of slow frequency waves (synchronisation), whereas an […] thereof is related with the presence of rapid frequency waves (desynchronisation).

Data set [2] relates to rats. The data set is described as follows: Synergistic effect with tacrine: qEEG of neocortical activity in rats. It counts as in vivo, rat. The note with it: n=7. The procedure:
Results reported in Table 5 show the synergistic effect of the combination of tacrine with the choline derivatives of the present invention.
Vehicle: 2 ml/Kg; all drugs were administered i.p., PC-1 and PC-2 at corresponding equimolar doses (15 μmol/2 ml/kg^−1); THA (tacrine) (5 mg/kg) was administered 30 min before compounds; atropine (0.1 mg/kg) was injected 15 min before PC-1 and PC-2. The number of animals was 7 per each group. Values represent EEG power (μV/s).

The mark [3] stands for this setting: rats i.p., PC-1/PC-2 15 μmol/2 ml/kg, THA 5 mg/kg 30 min before, atropine 0.1 mg/kg 15 min before.

The structures appear in SMILES notation.

Regarding `CC(C)(C)C(=O)OCC[N+](C)(C)C.[I-]` [PC-1, pivaloylcholine iodide], in data set [1] (1 mg), the Behaviour entry is “Alert response” and the “EEG Activity (change of EEG total power)” value is on record as “Decrease”. Further, in data set [1] (5 mg), the Behaviour result is given as “Alert response” and the “EEG Activity (change of EEG total power)” value is “Decrease”. Also, in data set [1] (50 mg), the Behaviour result is “Convulsions and death (50%)”; the “EEG Activity (change of EEG total power)” value was “Peaks”. In addition, in data set [2] (setting [3]), the “EEG power (qEEG of neocortical activity), 15″” value turned out to be 68 μV/s; the “EEG power (qEEG of neocortical activity), 30″” value is reported as 120 μV/s; the “EEG power (qEEG of neocortical activity), 45″” value stood at 127 μV/s; the “EEG power (qEEG of neocortical activity), 60″” value is on record as 115 μV/s. In addition, in data set [2] (setting [3]), the “EEG power (qEEG of neocortical activity), 75″” value worked out at 129.5 μV/s; the “EEG power (qEEG of neocortical activity), 90″” value is recorded as 117 μV/s; the “EEG power (qEEG of neocortical activity), 105″” value is given as 132.5 μV/s; the “EEG power (qEEG of neocortical activity), 120″” value turned out to be 18.5 μV/s. For the same compound, the “EEG power (qEEG of neocortical activity), 135″” value in data set [2] (setting [3]) is recorded as 135 μV/s. Moreover, the “EEG effect with tacrine given 30 min before” value in data set [2] (rats, THA 5 mg/Kg i.p. 30 min before 15 μmol i.p.) was “long-lasting EEG desynchronization and significant decrease in EEG spectrum total power”. Also, the “EEG power (qEEG of neocortical activity), Baseline” value in data set [2] (rats, before i.p. treatment) was 112.5 μV/s.
